Experiment [1] has as its system milk microbiota (SPC, aerobic microorganisms). The conditions noted are these: cited from earlier work; for extension in storage life: 30 ppm CO2 (King and Mabbitt, 1982).
The subject of experiment [2] is SPC (total microbial growth) in whole raw milk. Briefly: SPC of bulk raw milk in CO2 pressurized tank container (Example 2). The class given is cell-based. The conditions noted are these: bottom of the tank, entire 17 day study. The source says: The apparatus pressurizing and holding raw milk samples consisted of a 5300 U.S. gallon (20,000 liter) food grade, insulated, pressure vessel shipping container of the model HO4 type utilized by Agmark Foods, Inc. Compressed and filtered CO2 from high pressure tank was used, including a Praxair inline 3A sparger. The Agmark shipping container was sanitized on Aug. 4, 2004. The following day, the tank was pre-chilled with a spray of CO2 and filled with 3,291 U.S. gallons of fresh raw milk obtained from the Cornell University Teaching and Research Center Bovine Heard (T&R Center; Dryden, N.Y.) on Aug. 5, 2004. The raw milk from the T&R Center was received less than 12 hours after milking and was introduced from a holding tank into the pressure vessel at a temperature of approximately 1 to 2° C. Prior to filling the pressure vessel, the vessel was sealed and pressurized with carbon dioxide to a pressure of 25 psi (172.5 kPa). Milk was pumped into the tank through the discharge valve at the rear of the tank and CO2 was injected into the flow of the milk with an inline Praxair 3A sparger at a rate sufficient to infuse approximately 2000 parts per million at a gas flow rate of approximately 16 cubic feet per minute. The raw milk was pumped into the vessel at a flow rate of 70 to 80 gallons per minute with flowing CO2 under a 40 psi line pressure and 25 psi tank pressure. […]

For experiment [3], the system named is gram-negative lactose fermenting bacteria. Briefly: Gram-negative lactose fermenting bacteria on MacConkey agar, raw milk under CO2 pressure (Example 1). The class given is cell-based. Conditions: 6.1° C., 4 days. As to the method:
(§1) Raw milk from the T&R Center was monitored for changes in aerobic bacteria, gram-negative bacteria and total Lactobacillus spp. as follows: CO2 pressures of 0 (control), 68, 172, 344, 516 and 689 kPa, at 6.1° C. for 4-days. SPC, gram-negative bacteria and total Lactobacillus spp. were enumerated before (day 0) and after (day 4) treatment. Gram negative bacteria were enumerated on MacConkey Agar (Difco Manual, Becton Dickinson & Co., Sparks, Md.), a selective and differential media which can be used to discriminate between lactose fermenting and non-lactose fermenting gram-negative bacteria. Use of this media allows a one-step method of obtaining estimates of both coliform and non-coliform gram negative bacteria. Coliform bacteria may include species of Escherichia, Klebsiella and Enterobacter, potential pathogens and/or spoilage organisms. Non-coliform gram negative bacteria may include spoilage organisms such as pseudomonads or potential pathogens such as Salmonella spp. or Shigella spp. […]
(§2) For all microbiological assays, milk sample aliquots of 1 ml were used in dilution series. […] Representative and distinctive suspect colonies were gram stained, and confirmed gram positive bacilli colonies were counted as an estimate of total Lactobacillus spp.

For another experiment, the system named is Lactobacillus plantarum. The conditions noted are these: CO2 pressures of 13 MPa, 30° C., 30 minutes (Hong and Pyun, 1999); cited from earlier work.
Experiment [4] deals with gram-negative non-lactose fermenting bacteria. Briefly: Gram-negative non-lactose fermenting bacteria on MacConkey agar, raw milk under CO2 pressure (Example 1). The class given is cell-based. Conditions: 6.1° C., 4 days. How it is done:
as §1, §2

A further experiment has as its system thermoduric bacteria. Briefly: Thermoduric bacteria (laboratory pasteurization count) in raw milk under CO2 pressure (Example 1). The conditions noted are these: 4° C. Type of experiment: cell-based. How it is done: (§3) Milk samples were mixed and 5 ml of milk added into the treatment and control vessels. The treatment vessel was connected to the apparatus and the control vessel closed off. Both vessels were placed in the water bath. When the desired temperatures were attained in both treatment and control vessels, CO2 was introduced through the bottom of the treatment vessel until the set pressure was reached. The CO2 pressure was maintained throughout the test period. When the desired time was reached, the CO2 inlet was turned off, the pressure release valve on the outlet line opened, and the pressure released in under one minute. After depressurization, the treatment and control vessels were removed from the water bath and their external surfaces were wiped dry, sanitized with 95% ethanol, detached from the apparatus and transferred into sterile containers for dilution and plating.
(§4) The progression of these counts (total, Coliform/E. coli and thermoduric bacteria) in the treatment and control samples was tracked by conducting checks on the total aerobic counts (SPC) on treatment days 4 and 6. Based on the levels of total counts on days 4 and 6, analyses of total coli forms/E. coli and thermoduric bacteria after day 6 were conducted either in 1-day or 2-day intervals. The control sample final count was measured on days 4 and 6.
(§5) Initial total, coliform, and thermoduric counts were each determined for control and treated samples. Thermoduric organisms were enumerated by the laboratory pasteurization count (LPC) method described in the Standard Methods for the Examination of Dairy Products (Houghtby et al., 1992). The 3M Petri film count plate (3M Microbiology Products, St. Paul, Minn.) was used to enumerate total coli forms and Escherichia coli in the raw, treated and control milk samples.

A further experiment relates to Escherichia coli. The experiment in a line: E. coli count (Petrifilm) in raw milk under CO2 pressure (Example 1). Conditions: 4° C. The class given is cell-based. As to the method: as §3, §4, §5
The test system of another experiment is Lactobacillus spp. The experiment in a line: Total Lactobacillus spp. on acidified MRS agar, raw milk under CO2 pressure (Example 1). The class given is cell-based. The conditions noted are these: current study. As to the method:
as §1, §2

Setting [5] is: 689 kPa CO2 pressure, 4 days, raw milk.
[6] abbreviates: 689 kPa CO2 pressure, 6 days, raw milk.
Setting [7] is: 689 kPa CO2 pressure, 8 days, raw milk.
Where [8] appears, read: 689 kPa CO2 pressure, 9 days, raw milk.

Molecules are shown by their SMILES. Like-named read-outs stand apart in the source and are kept apart here.

In the case of `O=C=O` [CO2, carbon dioxide], the “SPC lower compared to control milk” value in experiment [1] (20-30 pmm dissolved CO2, 4 days at 7° C. (Mabbitt, 1982)) is 3 log10 cfu/ml. Moreover, the “decrease in bulk raw milk microbiota” value in experiment [1] (3997 kPa (or 5800 psi) CO2, ≧40° C., 30 min (Calvo and Bacones, 2001)) is 2 log10 cfu/ml. The “reduction in aerobic microorganisms in whole milk” value in experiment [1] (6044 kPa CO2, 45° C., 24 h (Erkman, 2000)) was 6 log10 cfu/ml. For the same compound, the reduction in experiment [1] (14598 kPa CO2, 25° C., 5-h (Erkman, 1997)) is reported as 8 log10 cfu/ml. The “reduction of bacterial growth in raw milk” value in experiment [1] (addition of CO2, storage at 6.7° C. for 48 h (Shipe et al., 1978)) is 50%. Moreover, the results for the “extension in storage life” value in experiment [1] (good quality milk (10^3 cfu/ml)) and in experiment [1] (poor quality milk (10^5 cfu/ml)) were 3 days and 1.2 days, respectively. Further, in experiment [2], the “bacterial levels versus quality limit of 5 log cfu/ml SPC” value was “did not reach the limit”. Further, the “levels of gram-negative fermenters compared to untreated controls” value in experiment [3] (68 to 689 kPa) is listed as “reduced at all pressures”. Further, the “decrease of gram-negative lactose fermenting bacteria compared to initial counts” value in experiment [3] (689 kPa) worked out at 0.80 log10 cfu/ml. Also, the “reductions in populations of Lactobacillus plantarum” value with Lactobacillus plantarum was “more than 6 logs”. Also, the “levels of gram-negative non-fermenters compared to untreated controls” value in experiment [4] (68 to 689 kPa) is given as “reduced at all pressures”. Moreover, the “decrease of gram-negative non-lactose fermenting bacteria compared to initial counts” value in experiment [4] (689 kPa) is 0.64 log10 cfu/ml. The “Thermoduric Bacteria counts, Treated, 4 Days” value with thermoduric bacteria (setting [5]) was 1.0 * 10^0 cfu/ml. For the same compound, the “Thermoduric Bacteria counts, Treated, 6 Days” value with thermoduric bacteria (setting [6]) was 9.0 * 10^0m cfu/ml. Also, the “Thermoduric Bacteria counts, Treated, 8 Days” value with thermoduric bacteria (setting [7]) is 2.1 * 10^1n cfu/ml. Besides, in the experiment with thermoduric bacteria (setting [8]), the “Thermoduric Bacteria counts, Treated, 9 Days” value is listed as 3.7 * 10^1o cfu/ml. In the experiment on thermoduric bacteria (689 kPa, up to 9 days), the “total thermoduric bacteria counts in treated milk” value is reported as “Neither E. coli nor total thermoduric bacteria counts increased”. The “E.coli counts, Treated, 4 Days” value in the experiment on Escherichia coli (setting [5]) was 1.7 * 10^1k cfu/ml. Also, the “E.coli counts, Treated, 6 Days” value with Escherichia coli (setting [6]) is 1.7 * 10^1k cfu/ml. In the experiment with Escherichia coli (setting [7]), the “E.coli counts, Treated, 8 Days” value is reported as 1.7 * 10^1k cfu/ml. For the same compound, the “E.coli counts, Treated, 9 Days” value with Escherichia coli (setting [8]) is reported as 1.5 * 10^1k cfu/ml. Also, the “E. coli counts in treated milk” value in the experiment on Escherichia coli (689 kPa, up to 9 days) is given as “Neither E. coli nor total thermoduric bacteria counts increased”. Further, in the experiment with Lactobacillus spp., the “populations of Lactobacillus after CO2 pressure treatment” value is recorded as “decreased”.
